{"source": "patent US10869922B2", "about": "(priority 2016, dated 2020)", "key": {"[1]": {"tested_on": "DC and CD8+T lymphocytes from OT-1 transgenic mouse", "experiment": "DC/T lymphocyte co-culture experiment", "type": "cell-based", "from_the_text": "Co-culture DC stimulated by high NaCl concentration and OVA antigen in vitro and CFSE-labeled CD8+T lymphocytes from OT-1 transgenic mouse for 2-3 days, observe the formation of CLUSTER under white light of the microscope, detect the proliferation of CFSE-labeled CD8+T lymphocytes by flow cytometry, and detect the secretion of IL2 in the collected culturesupernatant by ELISA."}, "DC": {"tested_on": "DC", "experiment": "Immunofluorescence co-localization experiment", "type": "cell-based, mouse", "settings": "DC treated by high NaCl concentration, FIG. 10d", "from_the_text": "Immunofluorescence co-localization experiment: the experimental group, ibid. Fix and permeabilize DC stimulated by high NaCl concentration and fluorescent labeled OVA in vitro, and stain with organelle fluorescent protein markers of proteasome and lysosome, and observe under the confocal microscopy."}, "[2]": {"settings": "DC treated by high NaCl concentration and OVA, co-culture 2-3 days, FIGS. 10a, b and c"}}}
{"compound": "[Cl-].[Na+]", "note": "[NaCl, sodium chloride]", "values": [{"measurement": "proliferation of specific CD8+T lymphocytes", "setting": "[1]; [2]", "value": "induce"}, {"measurement": "secretion of IL2", "setting": "[1]; [2]", "value": "induce"}, {"measurement": "cross antigen presentation of DC", "setting": "[1]; high NaCl concentration, FIG. 10", "value": "significantly improve"}, {"measurement": "degradation route of OVA in DC", "setting": "DC", "value": "mostly degraded by proteasome rather than lysosome"}]}
